What was measured:
[1] = target: T1, Indoleamine 2,3-dioxygenase 1 (Homo sapiens, UniProt P14902); experiment: Inhibition of IDO1 (unknown origin)
[2] = target: T1, Indoleamine 2,3-dioxygenase 1; experiment: Inhibition of IDO1 in IFN-gamma stimulated human HeLa cells in presence of heme measured after 20 hrs by heme-competitive binding assay; format: cell-based
[3] = Oral bioavailability in ICR mouse 30 mg/kg measured after 0.0833 to 24 hrs by liquid chromatography/tandem mass spectrometric analysis; format: ADME, organism-based; settings: in vivo, time 0.0833-24 hrs
HeLa = experiment: Cytotoxicity against human HeLa cells assessed as cell viability incubated for 48 hrs by MTT assay; format: functional, cell-based
[4] = target: T2, Protein cereblon/Indoleamine 2,3-dioxygenase 1 (Homo sapiens, UniProt P14902+Q96SW2); experiment: Protac activity at CRBN/IDO1 in human HeLa cells assessed as IDO1 protein degradation; format: cell-based
Target sequence in this assay (P14902 whole entry): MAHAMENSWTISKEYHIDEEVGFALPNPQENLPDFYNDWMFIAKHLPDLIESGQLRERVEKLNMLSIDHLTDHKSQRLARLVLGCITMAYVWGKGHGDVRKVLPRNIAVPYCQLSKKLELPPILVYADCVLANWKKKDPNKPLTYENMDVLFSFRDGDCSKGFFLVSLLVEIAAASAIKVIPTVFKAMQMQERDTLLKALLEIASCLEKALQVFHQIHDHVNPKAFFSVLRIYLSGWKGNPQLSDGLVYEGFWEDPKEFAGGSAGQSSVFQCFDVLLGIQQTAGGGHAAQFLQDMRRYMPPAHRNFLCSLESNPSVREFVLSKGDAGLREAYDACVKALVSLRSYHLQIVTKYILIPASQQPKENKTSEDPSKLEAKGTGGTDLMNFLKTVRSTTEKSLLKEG
Target sequence in this assay (Q96SW2 whole entry): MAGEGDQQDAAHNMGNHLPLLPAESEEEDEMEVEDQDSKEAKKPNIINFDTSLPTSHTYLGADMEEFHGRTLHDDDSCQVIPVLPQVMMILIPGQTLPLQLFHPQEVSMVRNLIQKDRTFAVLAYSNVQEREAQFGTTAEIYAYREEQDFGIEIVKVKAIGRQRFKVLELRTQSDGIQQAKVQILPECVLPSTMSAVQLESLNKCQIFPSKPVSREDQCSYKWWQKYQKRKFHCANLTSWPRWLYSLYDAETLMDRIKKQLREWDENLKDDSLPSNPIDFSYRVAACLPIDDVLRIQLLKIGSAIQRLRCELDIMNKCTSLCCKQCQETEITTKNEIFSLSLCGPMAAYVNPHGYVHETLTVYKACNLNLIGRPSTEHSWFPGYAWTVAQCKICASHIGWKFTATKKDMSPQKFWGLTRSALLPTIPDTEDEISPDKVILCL

[5] = target: T2, Protein cereblon/Indoleamine 2,3-dioxygenase 1; experiment: Protac activity at CRBN/IDO1 in human HeLa cells assessed as IDO1 protein degradation relative to control; format: cell-based
Target sequence in this assay (P14902 whole entry, looked up): as the sequence (P14902 whole entry) above
Target sequence in this assay (Q96SW2 whole entry, looked up): as the sequence (Q96SW2 whole entry) above

Ehrlich = experiment: Antitumor activity against mouse Ehrlich ascites carcinoma allografted in Swiss albino mouse assessed tumor growth inhibition by measuring CD8+ T cells relative to control; format: functional
[6] = target: T1, Indoleamine 2,3-dioxygenase 1; experiment: Inhibition of IDO1 (unknown origin) using L-tryptophan incubated for 30 mins by microplate reader method
Homo sapiens = species: Homo sapiens; experiment: Ratio of IC50 for IDO1 (unknown origin) to IC50 for IDO1 in human HeLa cells; format: cell-based

T1 sequence (P14902 whole entry): as the sequence (P14902 whole entry) above

| IC50 [1] [nM] | Compound | other results |
| --- | --- | --- |
| < 100 | OC1CCC(C(F)(F)CC2c3c(F)cccc3-c3cncn32)CC1 (configuration not stated) | – |
| < 50 | C[C@@H](NC(=O)c1ccc(Cl)cc1)[C@H]1CC[C@@H](c2ccnc3ccc(F)cc32)CC1 | – |
| 16 | Cn1cc(-c2cc(F)c(NC(=O)NCC3c4ccccc4-c4cncn43)cc2F)cn1 (configuration not stated) | – |
| – | C[C@@H](C(=O)Nc1ccc(C#N)cc1)[C@H]1CC[C@@H](c2ccnc3ccc(F)cc32)CC1 | IC50 [2]: < 100 nM |
| > 250 | CC(C(=O)Nc1ccc(Cl)cc1)[C@H]1CC[C@H](Oc2ccnc(C(F)(F)F)c2)CC1 (some centres not stated) | – |
| < 200 | O[C@@H](C[C@H]1c2ccccc2-c2cncn21)c1cc2ccoc2cc1F | – |
| < 50 | CC(C(=O)Nc1ccc(Cl)cc1)C1CCC(c2ccnc(C(F)(F)F)c2)CC1 (configuration not stated) | – |
| > 50 | CC(C(=O)Nc1ccc(Cl)cc1)N1CCC(Oc2ccnc3ccc(F)cc23)CC1 (configuration not stated) | – |
| 1.57 | Nc1nonc1/C(=N/O)N1Cc2ccccc2C1 | – |
| > 50 | CCC(C(=O)Nc1ccc(Cl)cc1)[C@H]1CC[C@H](Oc2ccnc3ccccc23)CC1 (some centres not stated) | – |
| < 50 | CC(C)Oc1ccc(S(=O)(=O)NC2CCCc3cnccc32)cc1 (configuration not stated) | – |
| – | O=S(=O)(NCCCOc1ccccc1-c1c[nH]cn1)C(F)(F)F | bioavailability [3]: 96% |
| < 1 | O/N=C(/CCC1CCCCC1)Nc1cccc(Cl)c1 | – |
| 4 | Cn1cc(-c2ccc(NC(=O)N3CCC(C(=O)/C(=N/O)Nc4ccc(F)c(Br)c4)CC3)cc2)cn1 | – |
| 1070 | O=C1CCC(N2C(=O)c3cccc(NCCOCCOCCOCCOCCOCCOCCOCCNCCNc4nonc4/C(=N/O)Nc4cccc(Br)c4)c3C2=O)C(=O)N1 (configuration not stated) | IC50 (HeLa): 37400 nM; DC50 [4]: 2840 nM; Emax [5]: 93% |
| – | NC(=O)c1n[nH]nc1-c1ccc(F)c(F)c1 | TGI (Ehrlich): 96% |
| < 50 | C[C@@H](NS(=O)(=O)c1cccc(Cl)c1)[C@H]1CC[C@@H](c2ccnc3ccc(F)cc32)CC1 | – |
| < 50 | N#Cc1ccc(NC(=O)NCC2c3ccccc3-c3cncn32)cc1 (configuration not stated) | – |
| > 50 | O=S(=O)(Nc1cccc2cnccc12)c1ccc2c(c1)OCCO2 | – |
| < 50 | O=C(Nc1ccc(Cl)cc1)N[C@H]1CC[C@H](c2ccnc3ccc(F)cc32)CC1 | – |
| – | CC1=CCC[C@@H](C)[C@]1(C)C[C@]1(C)[C@@H](O)CC[C@]2(C)[C@@]3(C)CC[C@]4(C)c5c(C(O)C(=O)O)ccc(O)c5C[C@H]4[C@]3(C)CC[C@]21C (some centres not stated) | IC50 [6]: 240 nM |
| – | Clc1ccc(Nc2cn[nH]n2)cc1 | Ratio IC50 (Homo sapiens): > 500 |
| 111 | COC1CN(CCNc2nc3c(F)c(F)cc(/C(=N/O)Nc4cccc(Br)c4)c3[nH]2)C1 | – |
| < 100 | OC(CC1c2cc(F)ncc2-c2cncn21)C1CCCCC1 (configuration not stated) | – |

— ChEMBL document CHEMBL5136980, “Indoleamine 2,3-dioxygenase 1 (IDO1) inhibitors and PROTAC-based degraders for cancer therapy” (Eur J Med Chem, 2022)
